Test results as given in article PMC11597725, “New Asymmetric Gemini Triazole Surfactants with a Polar Triethylene Glycol Fragment: Synthesis and Physico-Chemical Properties” (Molecules, 2024).

target: T1, bovine serum albumin (BSA) (Bos taurus, UniProt P02769); test: tryptophan fluorescence quenching, double-log plot; type: binding; details: 25 mM Tris-HCl pH 7.4, 298.15 K, BSA 10 μM, surfactant 0-700 μM
T1 construct: gene ALB; native serum protein, BSA powder dissolved in buffer; mature form expected
T1 sequence (P02769 25-607): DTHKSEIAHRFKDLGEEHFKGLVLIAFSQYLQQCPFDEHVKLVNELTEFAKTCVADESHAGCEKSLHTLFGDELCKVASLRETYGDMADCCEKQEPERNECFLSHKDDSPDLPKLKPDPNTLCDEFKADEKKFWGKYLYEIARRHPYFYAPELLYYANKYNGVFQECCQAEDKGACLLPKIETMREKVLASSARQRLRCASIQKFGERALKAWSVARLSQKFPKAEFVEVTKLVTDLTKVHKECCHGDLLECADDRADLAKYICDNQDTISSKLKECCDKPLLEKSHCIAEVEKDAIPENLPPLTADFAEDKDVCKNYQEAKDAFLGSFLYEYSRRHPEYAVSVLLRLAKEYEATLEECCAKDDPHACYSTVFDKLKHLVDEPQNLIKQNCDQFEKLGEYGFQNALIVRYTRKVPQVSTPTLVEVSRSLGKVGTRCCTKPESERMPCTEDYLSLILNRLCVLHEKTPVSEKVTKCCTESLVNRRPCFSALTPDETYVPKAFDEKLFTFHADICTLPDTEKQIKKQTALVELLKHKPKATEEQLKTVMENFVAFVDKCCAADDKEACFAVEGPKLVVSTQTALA
Description: tryptophan fluorescence quenching, double-log plot on bovine serum albumin (BSA)

In order of rising “Kb” value:
1. CCCCn1cc[n+](CCCn2cc[n+](CCCn3cc(COCCOCCOCCOC)nn3)c2)c1 [14a, 1-(3-(4-(2,5,8,11-tetraoxadodecyl)-1H-1,2,3-triazol-1-yl)propyl)-3-(3-(1-butyl-1H-imidazol-3-ium-3-yl)propyl)-1H-imidazol-3-ium dibromide]  730 M⁻¹
2. CCCCn1cc[n+](CCC[n+]2ccn(CCOCCn3cc(COCCOCCOCCOC)nn3)c2)c1 [15a, 1-(2-(2-(4-(2,5,8,11-tetraoxadodecyl)-1H-1,2,3-triazol-1-yl)ethoxy)ethyl)-3-(3-(1-butyl-1H-imidazol-3-ium-3-yl)propyl)-1H-imidazol-3-ium dibromide]  790 M⁻¹
3. COCCOCCOCCOCc1cn(CCOCCn2cc[n+](CCC[n+]3ccn(CCOCCn4cc(COCCOCCOCCOC)nn4)c3)c2)nn1 [15d, 3,3′-(propane-1,3-diyl)bis(1-(2-(2-(4-(2,5,8,11-tetraoxadodecyl)-1H-1,2,3-triazol-1-yl)ethoxy)ethyl)-1H-imidazol-3-ium) dibromide]  10000 M⁻¹
4. CCCCCCCCn1cc[n+](CCC[n+]2ccn(CCOCCn3cc(COCCOCCOCCOC)nn3)c2)c1 [15b, 1-(2-(2-(4-(2,5,8,11-tetraoxadodecyl)-1H-1,2,3-triazol-1-yl)ethoxy)ethyl)-3-(3-(1-octyl-1H-imidazol-3-ium-3-yl)propyl)-1H-imidazol-3-ium dibromide]  10400 M⁻¹
5. CCCCCCCCCCCCCCn1cc[n+](CCC[n+]2ccn(CCOCCn3cc(COCCOCCOCCOC)nn3)c2)c1 [15c, 1-(2-(2-(4-(2,5,8,11-tetraoxadodecyl)-1H-1,2,3-triazol-1-yl)ethoxy)ethyl)-3-(3-(1-tetradecyl-1H-imidazol-3-ium-3-yl)propyl)-1H-imidazol-3-ium dibromide]  10900 M⁻¹
6. CCCCCCCCn1cc[n+](CCCn2cc[n+](CCCn3cc(COCCOCCOCCOC)nn3)c2)c1 [14b, 1-(3-(4-(2,5,8,11-tetraoxadodecyl)-1H-1,2,3-triazol-1-yl)propyl)-3-(3-(1-octyl-1H-imidazol-3-ium-3-yl)propyl)-1H-imidazol-3-ium dibromide]  20700 M⁻¹
7. COCCOCCOCCOCc1cn(CCCn2cc[n+](CCC[n+]3ccn(CCCn4cc(COCCOCCOCCOC)nn4)c3)c2)nn1 [14d, 3,3′-(propane-1,3-diyl)bis(1-(3-(4-(2,5,8,11-tetraoxadodecyl)-1H-1,2,3-triazol-1-yl)propyl)-1H-imidazol-3-ium) dibromide]  34800 M⁻¹
8. CCCCCCCCCCCCCCn1cc[n+](CCC[n+]2ccn(CCCn3cc(COCCOCCOCCOC)nn3)c2)c1 [14c, 1-(3-(4-(2,5,8,11-tetraoxadodecyl)-1H-1,2,3-triazol-1-yl)propyl)-3-(3-(1-tetradecyl-1H-imidazol-3-ium-3-yl)propyl)-1H-imidazol-3-ium dibromide]  44900 M⁻¹
